Measured values: US11884661B2, “3-substituted propionic acids as αV integrin inhibitors” (BRISTOL-MYERS SQUIBB COMPANY, priority 2016, dated 2024)
pIC50: −log10 of the molar value.

biological target: T1, human αVβ6 (Homo sapiens, UniProt P06756+P18564); assay: human αVβ6 HTRF binding assay; conditions: recombinant human αVβ6 integrin, FITC-conjugated fibronectin
T1 construct: purchased R & D systems 3817-AV
Summary of the method: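 Biotinylated recombinant αVβ6 (1.25 nM final) incubated with FITC-fibronectin (5 nM) 1 h at RT, then streptavidin-terbium (0.625 nM) added and incubated overnight at RT in the dark before HTRF read. Buffer: 20 mM Tris pH 7.4, 1 mM MgCl2, 1 mM MnCl2, 0.01% Tween 20, 0.01% BSA.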

T1 sequence (P06756 31-992 limits assumed): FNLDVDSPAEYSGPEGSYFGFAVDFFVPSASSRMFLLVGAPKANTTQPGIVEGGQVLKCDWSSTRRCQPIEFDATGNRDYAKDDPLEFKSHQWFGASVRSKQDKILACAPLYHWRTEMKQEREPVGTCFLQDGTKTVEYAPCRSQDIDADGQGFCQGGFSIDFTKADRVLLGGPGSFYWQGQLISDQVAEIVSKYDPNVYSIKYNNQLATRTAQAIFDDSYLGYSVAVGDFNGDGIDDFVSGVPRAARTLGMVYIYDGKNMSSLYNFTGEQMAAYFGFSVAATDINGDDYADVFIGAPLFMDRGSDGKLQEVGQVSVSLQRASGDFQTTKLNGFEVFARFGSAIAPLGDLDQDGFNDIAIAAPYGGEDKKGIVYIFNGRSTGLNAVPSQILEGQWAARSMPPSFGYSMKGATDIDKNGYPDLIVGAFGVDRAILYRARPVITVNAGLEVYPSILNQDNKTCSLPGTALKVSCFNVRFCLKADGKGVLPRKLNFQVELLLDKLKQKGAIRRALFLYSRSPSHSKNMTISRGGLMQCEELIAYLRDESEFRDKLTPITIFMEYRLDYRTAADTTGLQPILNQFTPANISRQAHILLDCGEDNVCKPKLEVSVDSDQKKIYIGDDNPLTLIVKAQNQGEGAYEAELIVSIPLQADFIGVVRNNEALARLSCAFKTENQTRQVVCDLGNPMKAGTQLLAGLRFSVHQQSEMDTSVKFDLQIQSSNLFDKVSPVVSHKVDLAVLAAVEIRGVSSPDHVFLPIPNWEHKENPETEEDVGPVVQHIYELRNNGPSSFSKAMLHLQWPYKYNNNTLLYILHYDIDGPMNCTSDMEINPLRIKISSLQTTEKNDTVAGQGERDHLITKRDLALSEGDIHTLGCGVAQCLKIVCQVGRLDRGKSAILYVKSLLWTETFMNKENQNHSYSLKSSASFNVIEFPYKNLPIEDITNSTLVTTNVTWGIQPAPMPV
T1 sequence (P18564 22-707 limits assumed): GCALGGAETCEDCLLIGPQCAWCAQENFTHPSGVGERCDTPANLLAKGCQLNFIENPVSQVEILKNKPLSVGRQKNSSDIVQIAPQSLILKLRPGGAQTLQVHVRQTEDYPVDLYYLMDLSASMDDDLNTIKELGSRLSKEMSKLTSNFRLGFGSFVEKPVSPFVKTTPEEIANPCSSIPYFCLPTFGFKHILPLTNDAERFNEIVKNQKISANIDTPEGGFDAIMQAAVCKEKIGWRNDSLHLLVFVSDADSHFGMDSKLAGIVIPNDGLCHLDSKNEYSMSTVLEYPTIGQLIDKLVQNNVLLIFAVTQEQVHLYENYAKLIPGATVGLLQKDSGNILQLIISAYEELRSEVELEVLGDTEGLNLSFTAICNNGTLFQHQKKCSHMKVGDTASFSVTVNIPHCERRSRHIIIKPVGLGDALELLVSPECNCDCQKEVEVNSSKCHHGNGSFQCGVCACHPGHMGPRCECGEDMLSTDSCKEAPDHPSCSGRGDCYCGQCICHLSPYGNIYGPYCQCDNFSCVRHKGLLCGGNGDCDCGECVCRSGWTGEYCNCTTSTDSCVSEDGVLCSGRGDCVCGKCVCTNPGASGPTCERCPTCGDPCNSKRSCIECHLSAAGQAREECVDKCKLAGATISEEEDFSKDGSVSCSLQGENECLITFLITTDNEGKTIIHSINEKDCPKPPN

Row | SMILES | pIC50
1 | CCOc1ncc([C@@H](CC(=O)O)n2ccc(CCCc3ccc4c(n3)NCCC4)n2)cn1 [Example 81, (R)-3-(2-ethoxypyrimidin-5-yl)-3-(3-(3-(5,6,7,8-tetrahydro-1,8-naphthyridin-2-yl)propyl)-1H-pyrazol-1-yl)propanoic acid] | 6.32
2 | COc1ncc([C@@H](CC(=O)O)n2ccc(CCCc3ccc4c(n3)NCCC4)n2)cn1 [Example 83, (R)-3-(2-methoxypyrimidin-5-yl)-3-(3-(3-(5,6,7,8-tetrahydro-1,8-naphthyridin-2-yl)propyl)-1H-pyrazol-1-yl)propanoic acid] | 6.51
3 | O=C(O)CC(c1cncnc1)n1ccc(CCCc2ccc3c(n2)NCCC3)n1 (stereo not shown) [Example 84, 3-(pyrimidin-5-yl)-3-(3-(3-(5,6,7,8-tetrahydro-1,8-naphthyridin-2-yl)propyl)-1H-pyrazol-1-yl)propanoic acid] | 6.96
4 | Cc1ncc([C@H](CC(=O)O)n2ccc(CCC[C@H]3CCc4cccnc4N3)n2)cn1 [Example 86, (S)-3-(2-methylpyrimidin-5-yl)-3-(3-(3-((S)-1,2,3,4-tetrahydro-1,8-naphthyridin-2-yl)propyl)-1H-pyrazol-1-yl)propanoic acid] | 6.57
5 | Cc1ncc(C(CC(=O)O)n2nccc2CCC[C@H]2CCc3cccnc3N2)cn1 (stereo partly drawn) [Example 87, 3-(2-methylpyrimidin-5-yl)-3-(5-(3-((S)-1,2,3,4-tetrahydro-1,8-naphthyridin-2-yl)propyl)-1H-pyrazol-1-yl)propanoic acid] | 5.86
6 | Cc1ncc([C@H](CC(=O)O)n2ccc(CCC[C@@H]3CCc4cccnc4N3)n2)cn1 [Example 88, (S)-3-(2-methylpyrimidin-5-yl)-3-(3-(3-((R)-1,2,3,4-tetrahydro-1,8-naphthyridin-2-yl)propyl)-1H-pyrazol-1-yl)propanoic acid] | 6.77
7 | COc1ncc([C@H](CC(=O)O)n2ccc(CCC[C@H]3CCc4cccnc4N3)n2)cn1 [Example 89, (S)-3-(2-methoxypyrimidin-5-yl)-3-(3-(3-((S)-1,2,3,4-tetrahydro-1,8-naphthyridin-2-yl)propyl)-1H-pyrazol-1-yl)propanoic acid] | 7.00
8 | COc1ncc([C@H](CC(=O)O)n2ccc(CCC[C@@H]3CCc4cccnc4N3)n2)cn1 [Example 90, (S)-3-(2-methoxypyrimidin-5-yl)-3-(3-(3-((R)-1,2,3,4-tetrahydro-1,8-naphthyridin-2-yl)propyl)-1H-pyrazol-1-yl)propanoic acid] | 6.66
9 | Cc1ncc(C(CC(=O)O)n2ccc(CCCc3ccc4c(n3)NCCCC4)n2)cn1 (stereo not shown) [Example 98, 3-(2-methylpyrimidin-5-yl)-3-(3-(3-(6,7,8,9-tetrahydro-5H-pyrido[2,3-b]azepin-2-yl)propyl)-1H-pyrazol-1-yl)propanoic acid] | 6.23
10 | Cc1ncc([C@@H](CC(=O)O)n2cc(F)c(CCCc3ccc4c(n3)NCCC4)n2)cn1 [Example 114, (R)-3-(4-fluoro-3-(3-(5,6,7,8-tetrahydro-1,8-naphthyridin-2-yl)propyl)-1H-pyrazol-1-yl)-3-(2-methylpyrimidin-5-yl)propanoic acid] | 5.32
11 | COc1ccc(C(CC(=O)O)c2nc(CCCCc3ccc4c(n3)NCCC4)c(C)o2)cc1F (stereo not shown) [Example 181, 3-(3-fluoro-4-methoxyphenyl)-3-(5-methyl-4-(4-(5,6,7,8-tetrahydro-1,8-naphthyridin-2-yl)butyl)oxazol-2-yl)propanoic acid] | 5.97

Stronger by pIC50, values ahead:

Row | pIC50 | SMILES
12 | 8.07 | COc1ncc([C@H](CC(=O)O)n2ccc(CCCc3ccc4c(n3)NCCC4)n2)cn1 [Example 82, (S)-3-(2-methoxypyrimidin-5-yl)-3-(3-(3-(5,6,7,8-tetrahydro-1,8-naphthyridin-2-yl)propyl)-1H-pyrazol-1-yl)propanoic acid]
13 | 7.28 | O=C(O)C[C@@H](c1cnc(O)nc1)n1ccc(CCCc2ccc3c(n2)NCCC3)n1 [Example 85, (S)-3-(2-hydroxypyrimidin-5-yl)-3-(3-(3-(5,6,7,8-tetrahydro-1,8-naphthyridin-2-yl)propyl)-1H-pyrazol-1-yl)propanoic acid]
14 | 8.38 | O=C(O)C[C@@H](c1ccc(=O)n(Cc2ccccc2)c1)n1ccc(CCCc2ccc3c(n2)NCCC3)n1 [Example 109, (S)-3-(1-benzyl-6-oxo-1,6-dihydropyridin-3-yl)-3-(3-(3-(5,6,7,8-tetrahydro-1,8-naphthyridin-2-yl)propyl)-1H-pyrazol-1-yl)propanoic acid]
15 | 8.03 | O=C(O)C[C@@H](c1ccc(OCc2ccccc2)nc1)n1ccc(CCCc2ccc3c(n2)NCCC3)n1 [Example 110, (S)-3-(6-(benzyloxy)pyridin-3-yl)-3-(3-(3-(5,6,7,8-tetrahydro-1,8-naphthyridin-2-yl)propyl)-1H-pyrazol-1-yl)propanoic acid]
16 | 7.72 | O=C(O)C[C@@H](c1ccc(=O)n(CC2CC2)c1)n1ccc(CCCc2ccc3c(n2)NCCC3)n1 [Example 111, (S)-3-(1-(cyclopropylmethyl)-6-oxo-1,6-dihydropyridin-3-yl)-3-(3-(3-(5,6,7,8-tetrahydro-1,8-naphthyridin-2-yl)propyl)-1H-pyrazol-1-yl)propanoic acid]
17 | 8.46 | O=C(O)C[C@@H](c1ccc(OCC2CC2)nc1)n1ccc(CCCc2ccc3c(n2)NCCC3)n1 [Example 112, (S)-3-(6-(cyclopropylmethoxy)pyridin-3-yl)-3-(3-(3-(5,6,7,8-tetrahydro-1,8-naphthyridin-2-yl)propyl)-1H-pyrazol-1-yl)propanoic acid]
18 | 7.46 | COc1ccc(C(CC(=O)O)c2ccn(CCCc3ccc4c(n3)NCCC4)n2)cn1 (stereo not shown) [Example 113, 3-(6-methoxypyridin-3-yl)-3-(1-(3-(5,6,7,8-tetrahydro-1,8-naphthyridin-2-yl)propyl)-1H-pyrazol-3-yl)propanoic acid]
19 | 7.33 | COc1ccc(C(CC(=O)O)c2cc(CCCc3ccc4c(n3)NCCC4)[nH]n2)cc1F (stereo not shown) [Example 116, 3-(3-Fluoro-4-methoxyphenyl)-3-(5-(3-(5,6,7,8-tetrahydro-1,8-naphthyridin-2-yl)propyl)-1H-pyrazol-3-yl)propanoic acid]
20 | 8.35 | COc1ncc(C(CC(=O)O)c2nc(CCCc3ccc4c(n3)NCCC4)cs2)cn1 (stereo not shown) [Example 145, 3-(2-methoxypyrimidin-5-yl)-3-(4-(3-(5,6,7,8-tetrahydro-1,8-naphthyridin-2-yl)propyl)thiazol-2-yl)propanoic acid]
21 | 7.27 | COc1ccc(C(CC(=O)O)c2csc(CCCc3ccc4c(n3)NCCC4)n2)cc1F (stereo not shown) [Example 153, 3-(3-fluoro-4-methoxyphenyl)-3-(2-(3-(5,6,7,8-tetrahydro-1,8-naphthyridin-2-yl)propyl)thiazol-4-yl)propanoic acid]
22 | 8.85 | COc1ccc(C(CC(=O)O)c2nc(CCCc3ccc4c(n3)NCCC4)co2)cc1F (stereo not shown) [Example 178, 3-(3-fluoro-4-methoxyphenyl)-3-(4-(3-(5,6,7,8-tetrahydro-1,8-naphthyridin-2-yl)propyl)oxazol-2-yl)propanoic acid]
